In patent publication US12723063B2, “GIPR-agonist compounds” (Eli Lilly and Company, priority 2019, dated 2026):
*1 amine or outer side, *2 acyl side, *3 side chain or, on linkers, in order; H or OH if unused. Where a SMILES comes first, the peptide text is derived from it. Side-chain parts run from the residue outwards. [ ]: non-standard residue; d: D form. The star is where a group is joined. C20 diacid = O=C(O)CCCCCCCCCCCCCCCCCCC(=O)*; αMePhe(2-F) = C[C@](N)(Cc1ccccc1F)C(=O)O; γGlu = O=C(O)[C@H](CCC(=O)[*:2])N[*:1]; 4Pal = N[C@@H](Cc1ccncc1)C(=O)O; αMeL = CC(C)C[C@](C)(N)C(=O)O; Orn = NCCC[C@H](N)C(=O)O; AEEA = NCCOCCOCC(=O)O; Aib = CC(C)(N)C(=O)O

Assays:
[1] = molecular target: T1, human GLP-1 receptor (GLP-1R) (Homo sapiens, UniProt P43220); test: cAMP functional assay (HTRF) in HEK293 cells in presence of 0.1% casein; format: cell-based; conditions: HEK293 cells expressing human GLP-1R, geometric mean, read-out: hGLP1R cAMP Rel EC50 nM (SEM, n)
T1 construct: expressed in transfected cells; host or cells: HEK293

human GcgR = molecular target: T2, human GcgR (Homo sapiens, UniProt P47871); test: [125I]-Glucagon binding, SPA with WGA beads, 0.1% bacitracin; conditions: geometric mean, read-out: hGcgR Ki
T2 construct: expressed in transfected cells; crude membranes
Procedure, shortened: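 SPA competition binding with WGA beads on crude membranes from HEK293 cells stably expressing hGcgR. Buffer: 25 mM HEPES pH 7.4, 2.5 mM CaCl2, 1 mM MgCl2, 0.1% bacitracin, 0.003% Tween-20; 10-point 3-fold dilutions, NSB with 1 μM Gcg.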

T2 sequence (P47871 26-477): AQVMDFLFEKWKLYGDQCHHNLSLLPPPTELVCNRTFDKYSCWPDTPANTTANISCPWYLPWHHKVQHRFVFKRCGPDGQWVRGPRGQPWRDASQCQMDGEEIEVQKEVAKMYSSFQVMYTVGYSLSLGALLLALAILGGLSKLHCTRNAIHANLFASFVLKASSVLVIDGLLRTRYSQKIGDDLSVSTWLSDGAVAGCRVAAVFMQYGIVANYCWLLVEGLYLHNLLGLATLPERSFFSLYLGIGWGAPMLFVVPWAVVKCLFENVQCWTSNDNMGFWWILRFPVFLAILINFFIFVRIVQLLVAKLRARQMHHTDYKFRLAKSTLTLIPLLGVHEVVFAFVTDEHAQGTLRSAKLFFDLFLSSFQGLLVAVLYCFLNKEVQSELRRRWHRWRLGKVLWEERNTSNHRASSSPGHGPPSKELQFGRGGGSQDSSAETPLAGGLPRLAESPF
T1 sequence (P43220 24-463): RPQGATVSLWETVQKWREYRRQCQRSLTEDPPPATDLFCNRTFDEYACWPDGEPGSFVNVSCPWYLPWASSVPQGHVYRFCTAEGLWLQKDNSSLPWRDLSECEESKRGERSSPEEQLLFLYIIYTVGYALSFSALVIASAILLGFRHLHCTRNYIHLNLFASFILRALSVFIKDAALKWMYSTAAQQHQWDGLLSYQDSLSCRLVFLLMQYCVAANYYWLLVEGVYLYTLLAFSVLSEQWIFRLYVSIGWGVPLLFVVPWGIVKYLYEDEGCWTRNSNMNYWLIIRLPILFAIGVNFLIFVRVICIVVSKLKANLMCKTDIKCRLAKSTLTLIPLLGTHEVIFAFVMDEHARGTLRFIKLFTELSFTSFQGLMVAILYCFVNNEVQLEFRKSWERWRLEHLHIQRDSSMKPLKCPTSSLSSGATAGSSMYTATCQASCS

Row | Structure (SMILES) | EC50 [1] | Ki (human GcgR)
1 | CC[C@H](C)[C@H](NC(=O)[C@H](CO)NC(=O)[C@H](Cc1ccc(O)cc1)NC(=O)[C@H](CC(=O)O)NC(=O)[C@H](CO)NC(=O)[C@@H](NC(=O)[C@](C)(Cc1ccccc1F)NC(=O)[C@@H](NC(=O)CNC(=O)[C@H](CCC(=O)O)NC(=O)C(C)(C)NC(=O)[C@@H](N)Cc1ccc(O)cc1)[C@@H](C)O)[C@@H](C)CC)C(=O)N[C@@H](CC(C)C)C(=O)N[C@@H](CC(C)C)C(=O)N[C@@H](CC(=O)O)C(=O)N[C@@H](CCCCN)C(=O)N[C@H](C(=O)N[C@@H](Cc1c[nH]cn1)C(=O)N[C@@H](CCC(N)=O)C(=O)NC(C)(C)C(=O)N[C@@H](CC(=O)O)C(=O)N[C@@H](Cc1ccccc1)C(=O)N[C@H](C(=O)N[C@@H](CCC(=O)O)C(=O)N[C@@H](Cc1ccncc1)C(=O)N[C@@H](CCCCNC(=O)COCCOCCNC(=O)COCCOCCNC(=O)CC[C@H](NC(=O)CCCCCCCCCCCCCCCCCCC(=O)O)C(=O)O)C(=O)N[C@@H](CC(C)C)C(=O)N[C@@H](CCC(=O)O)C(=O)NCC(=O)NCC(=O)N1CCC[C@H]1C(=O)N[C@@H](CO)C(=O)N[C@@H](CO)C(=O)NCC(=O)N[C@@H](C)C(=O)N1CCC[C@H]1C(=O)N1CCC[C@H]1C(=O)N1CCC[C@H]1C(=O)N[C@@H](CO)C(N)=O)C(C)C)[C@@H](C)CC [Example 119] (H-Y[Aib]EGT[αMePhe(2-F)]ISDYSILLDKIHQ[Aib]DFVE[4Pal]K([AEEA-AEEA-γGlu-C20 diacid])LEGGPSSGAPPPS-NH2) | > 5000 nM | 68.8 nM
2 | CC[C@H](C)[C@H](NC(=O)[C@H](CO)NC(=O)[C@H](Cc1ccc(O)cc1)NC(=O)[C@H](CC(=O)O)NC(=O)[C@H](CO)NC(=O)[C@@H](NC(=O)[C@](C)(Cc1ccccc1F)NC(=O)[C@@H](NC(=O)CNC(=O)[C@H](CCC(=O)O)NC(=O)C(C)(C)NC(=O)[C@@H](N)Cc1ccc(O)cc1)[C@@H](C)O)[C@@H](C)CC)C(=O)N[C@@H](CC(C)C)C(=O)N[C@@H](CC(C)C)C(=O)N[C@@H](CC(=O)O)C(=O)N[C@@H](CCCCN)C(=O)N[C@H](C(=O)N[C@@H](Cc1c[nH]cn1)C(=O)N[C@@H](CCC(N)=O)C(=O)NC(C)(C)C(=O)N[C@@H](CC(=O)O)C(=O)N[C@@H](Cc1ccccc1)C(=O)N[C@H](C(=O)N[C@@H](CCC(=O)O)C(=O)N[C@@H](Cc1ccncc1)C(=O)N[C@@H](CCCCNC(=O)COCCOCCNC(=O)COCCOCCNC(=O)CC[C@H](NC(=O)CCCCCCCCCCCCCCCCCCC(=O)O)C(=O)O)C(=O)N[C@@H](CC(C)C)C(=O)N[C@@H](CCC(=O)O)C(=O)N[C@@H](C)C(=O)NCC(=O)N1CCC[C@H]1C(=O)N[C@@H](CO)C(=O)N[C@@H](CO)C(=O)NCC(=O)N[C@@H](C)C(=O)N1CCC[C@H]1C(=O)N1CCC[C@H]1C(=O)N1CCC[C@H]1C(=O)N[C@@H](CO)C(N)=O)C(C)C)[C@@H](C)CC [Example 120] (H-Y[Aib]EGT[αMePhe(2-F)]ISDYSILLDKIHQ[Aib]DFVE[4Pal]K([AEEA-AEEA-γGlu-C20 diacid])LEAGPSSGAPPPS-NH2) | > 5000 nM | 575 nM
3 | CC[C@H](C)[C@H](NC(=O)[C@H](CO)NC(=O)[C@H](Cc1ccc(O)cc1)NC(=O)[C@H](CC(=O)O)NC(=O)[C@H](CO)NC(=O)[C@@H](NC(=O)[C@](C)(Cc1ccccc1F)NC(=O)[C@@H](NC(=O)CNC(=O)[C@H](CCC(=O)O)NC(=O)C(C)(C)NC(=O)[C@@H](N)Cc1ccc(O)cc1)[C@@H](C)O)[C@@H](C)CC)C(=O)N[C@@H](CC(C)C)C(=O)N[C@@H](CC(C)C)C(=O)N[C@@H](CC(=O)O)C(=O)N[C@@H](CCCCN)C(=O)N[C@H](C(=O)N[C@@H](Cc1c[nH]cn1)C(=O)N[C@@H](CCC(N)=O)C(=O)NC(C)(C)C(=O)N[C@@H](CC(=O)O)C(=O)N[C@@H](Cc1ccccc1)C(=O)N[C@H](C(=O)N[C@@H](CCC(=O)O)C(=O)N[C@@H](Cc1ccncc1)C(=O)N[C@@H](CCCCNC(=O)COCCOCCNC(=O)COCCOCCNC(=O)CC[C@H](NC(=O)CCCCCCCCCCCCCCCCCCC(=O)O)C(=O)O)C(=O)N[C@@H](CC(C)C)C(=O)N[C@@H](CCC(=O)O)C(=O)N[C@@H](CCC(N)=O)C(=O)NCC(=O)N1CCC[C@H]1C(=O)N[C@@H](CO)C(=O)N[C@@H](CO)C(=O)NCC(=O)N[C@@H](C)C(=O)N1CCC[C@H]1C(=O)N1CCC[C@H]1C(=O)N1CCC[C@H]1C(=O)N[C@@H](CO)C(N)=O)C(C)C)[C@@H](C)CC [Example 121] (H-Y[Aib]EGT[αMePhe(2-F)]ISDYSILLDKIHQ[Aib]DFVE[4Pal]K([AEEA-AEEA-γGlu-C20 diacid])LEQGPSSGAPPPS-NH2) | > 5000 nM | 94.9 nM
4 | CC[C@H](C)[C@H](NC(=O)[C@H](CCCN)NC(=O)[C@H](CC(=O)O)NC(=O)[C@H](CC(C)C)NC(=O)[C@](C)(CC(C)C)NC(=O)[C@@H](NC(=O)[C@H](CO)NC(=O)[C@H](Cc1ccc(O)cc1)NC(=O)[C@H](CC(=O)O)NC(=O)[C@H](CO)NC(=O)[C@@H](NC(=O)[C@H](Cc1ccccc1)NC(=O)[C@@H](NC(=O)CNC(=O)[C@H](CCC(=O)O)NC(=O)C(C)(C)NC(=O)[C@@H](N)Cc1ccc(O)cc1)[C@@H](C)O)[C@@H](C)CC)[C@@H](C)CC)C(=O)N[C@@H](Cc1c[nH]cn1)C(=O)N[C@@H](CCC(N)=O)C(=O)NC(C)(C)C(=O)N[C@@H](CCC(=O)O)C(=O)N[C@@H](Cc1ccccc1)C(=O)N[C@H](C(=O)N[C@@H](CCC(=O)O)C(=O)N[C@@H](Cc1ccncc1)C(=O)N[C@@H](CCCCNC(=O)COCCOCCNC(=O)COCCOCCNC(=O)CC[C@H](NC(=O)CCCCCCCCCCCCCCCCCCC(=O)O)C(=O)O)C(=O)N[C@@H](CC(C)C)C(=O)N[C@@H](CCC(=O)O)C(=O)N[C@@H](C)C(=O)NCC(=O)N1CCC[C@H]1C(=O)N[C@@H](CO)C(=O)N[C@@H](CO)C(=O)NCC(=O)N[C@@H](C)C(=O)N1CCC[C@H]1C(=O)N1CCC[C@H]1C(=O)N1CCC[C@H]1C(=O)N[C@@H](CO)C(N)=O)C(C)C [Example 122] (H-Y[Aib]EGTFISDYSI[αMeL]LD[Orn]IHQ[Aib]EFVE[4Pal]K([AEEA-AEEA-γGlu-C20 diacid])LEAGPSSGAPPPS-NH2) | > 5000 nM | 957 nM
